According to ChEMBL document CHEMBL1136347, “Synthesis of 17beta-estradiol platinum(II) complexes: biological evaluation on breast cancer cell lines” (Bioorg Med Chem Lett, 2003):
pIC50: −log10 of the molar value.

Assays:
Format in all cases: functional, cell-based
[1] = tested on: MCF7; experiment: In vitro inhibition of estrogen receptor positive human breast cancer MCF-7 cell proliferation
[2] = tested on: Hs-578T; experiment: In vitro inhibition of estrogen receptor negative human breast cancer Hs 578.T cell proliferation
[3] = tested on: ZR-75-1; experiment: In vitro inhibition of estrogen receptor positive human breast cancer ZR-75-1 cell proliferation
[4] = tested on: MDA-MB-231; experiment: In vitro inhibition of estrogen receptor negative human breast cancer MDA-MB-231 cell proliferation

Substance | pIC50 [1] | pIC50 [2] | pIC50 [3] | pIC50 [4]
CISPLATIN | 4.78 | 5.04 | 5.03 | 4.90
Cisplatin complex [listing 1 of 8 here] | 5.40 | 5.46 | 5.60 | 5.33
Cisplatin complex [listing 2 of 8 here] | 5.24 | 5.57 | 5.38 | 5.07
Cisplatin complex [listing 3 of 8 here] | 5.37 | 5.39 | 5.30 | 5.32
Cisplatin complex [listing 4 of 8 here] | < 4.40 | < 4.40 | 4.50 | < 4.40
Cisplatin complex [listing 5 of 8 here] | 4.50 | 4.55 | 4.79 | 4.73
Cisplatin complex [listing 6 of 8 here] | 4.70 | 4.64 | 4.80 | –
Cisplatin complex [listing 7 of 8 here] | – | 4.76 | 4.85 | 4.90
Cisplatin complex [listing 8 of 8 here] | 4.87 | 4.91 | 5.03 | 5.04
